# Test results: patent publication US20120190635A1, “SELECTIVE OXIDATION OF C-H BONDS OF MODIFIED SUBSTRATES BY P450 MONOOXYGENASE” (THE REGENTS OF THE UNIVERSITY OF MICHIGAN, priority 2009, published 2012)
# Read-outs that look alike come from different tables or passages of the source.
# Tests used:
# [1] = tested on: S. aureus NorA; test: antibacterial MIC, microtiter dilution; details: Staphylococcus aureus, read-out: Minimal inhibitory concentration
# [2] = tested on: Bacillus subtillis DHS5333; test: antibacterial MIC, microtiter dilution; details: Bacillus, DHS5333, read-out: Minimal inhibitory concentration
# [3] = tested on: Escherichia. coli TolC; test: antibacterial MIC, microtiter dilution; details: Escherichia coli, read-out: Minimal inhibitory concentration, E. coli W3110 TolC disruption mutant; Mueller Hinten
# [4] = tested on: Acinetobacter baumannii; test: antibacterial MIC, microtiter dilution; details: read-out: Minimal inhibitory concentration
# [5] = tested on: Staphylococcus aureus ATCC6538P; test: antibacterial MIC, microtiter dilution; details: Staphylococcus aureus, ATCC6538P, read-out: Minimal inhibitory concentration
# [6] = tested on: Deinococcus radiodurans; test: antibacterial MIC, microtiter dilution; details: 60 h
# [7] = tested on: selected microbial targets; test: antibacterial activity, summary in words; type: cell-based
# Description: All measurements were performed in duplicate.
# The bioactivity of 8 was compared with its synthetic hydroxylated products. Unexpectedly, upon installation of a hydroxyl group at either the C7/C8 or C6/C9 positions (the four authentic standards, each of which contains a pair of diastereomers), the products lost activity. […] Further analysis of these carbolides, and direct investigation of their presumed binding to ribosomal targets will provide important insights into the impact of PikC-mediated regioselective hydroxylation for development of new small molecules for treatment of microbial pathogens and other human diseases.
# [8] = molecular target: T1, PikCD50N-RhFRED (Streptomyces venezuelae, UniProt O87605, D50N); test: substrate binding assay, PikCD50N-RhFRED
# Description: The unnatural cyclic carbolide substrate desosaminyl cyclododecane was synthesized to mimic the structure of the natural substrate YC-17 using a recently developed synthetic strategy (Anzai Y, et al. Functional analysis of MycG and MycCI, cytochrome P450 enzymes involved in biosyntheis of mycinamicin macrolide antibiotics. Chem. Biol. 2008 15:950-959), which was subsequently employed as a general approach to derivatize diverse alcohols with desosamine (FIG. 6). The standard assay contains 5 μM PikCD50N—RhFRED, 0.5 mM substrate, 2.5 mM NADPH, 0.25 Unit of glucose-6-phosphate dehydrogenase, and 5 mM glucose-6-phosphate for NADPH regeneration in 100 μl of reaction buffer (50 mM NaH2PO4, pH 7.3, 1 mM EDTA, 0.2 mM dithioerythritol, and 10% glycerol). The reaction was carried out at 30° C. for 3 h and terminated by extraction using 3×200 μl of CHCl3. The resulting organic extract was dried by N2 and redissolved in 120 μl of methanol. The subsequent LC-MS analysis was performed on a ThermoFinnigan LTQ linear ion-trap instrument (Department of Pharmacology, University of Michigan) equipped with electrospray source and Surveyor HPLC system by using an XBridge™ C18 3.5 μm 150 mm reverse-phase HPLC column under following conditions: mobile phase (A=deionized water+0.1% formic acid, B=acetonitrile+0.1% formic acid), 20% B for 3 min, 20-100% B over 25 min, 100% B for 5 min, 100-20% B over 1 min, 20% B for 15 min; flow rate, 0.21 ml/min The substrate binding assays were performed following the previous report (Li et al., supra).
# The decreased binding affinity of desosaminyl cyclododecane could result from […], an entropic penalty upon binding due to high conformational freedom of the saturated ring system, […]) lack of hydrophobic interactions between the functional groups on the macrolactone ring of […] and PikC active site residues, and/or […]) loss of some specific interactions with desosamine as observed in the co-crystal structure with PikC. […] Due to enhanced substrate conversion and ease of use in the absence of expensive exogenous redox partners, PikCD50N—RhFRED was employed to hydroxylate carbolide desosaminyl cyclododecane and all other substrates.
# [9] = tested on: Kocuria rhizophila ATCC9341; test: antibacterial MIC, microtiter dilution; details: Kocuria rhizophila, ATCC9341, read-out: Minimal inhibitory concentration
# [10] = molecular target: T1, PikCD50N-RhFRED; type: biochemical; details: for Number of products: Table 1
# [11] = tested on: Multidrug resistant S. aureus (MRSA); test: antibacterial MIC, microtiter dilution; details: Staphylococcus aureus, MRSA, read-out: Minimal inhibitory concentration
# [12] = read-out: Minimal inhibitory concentration, Deinococcus radiodurans, Special media, 30° C.
# T1 sequence (O87605 other isoform, or with tags, fused parts or gaps D50N): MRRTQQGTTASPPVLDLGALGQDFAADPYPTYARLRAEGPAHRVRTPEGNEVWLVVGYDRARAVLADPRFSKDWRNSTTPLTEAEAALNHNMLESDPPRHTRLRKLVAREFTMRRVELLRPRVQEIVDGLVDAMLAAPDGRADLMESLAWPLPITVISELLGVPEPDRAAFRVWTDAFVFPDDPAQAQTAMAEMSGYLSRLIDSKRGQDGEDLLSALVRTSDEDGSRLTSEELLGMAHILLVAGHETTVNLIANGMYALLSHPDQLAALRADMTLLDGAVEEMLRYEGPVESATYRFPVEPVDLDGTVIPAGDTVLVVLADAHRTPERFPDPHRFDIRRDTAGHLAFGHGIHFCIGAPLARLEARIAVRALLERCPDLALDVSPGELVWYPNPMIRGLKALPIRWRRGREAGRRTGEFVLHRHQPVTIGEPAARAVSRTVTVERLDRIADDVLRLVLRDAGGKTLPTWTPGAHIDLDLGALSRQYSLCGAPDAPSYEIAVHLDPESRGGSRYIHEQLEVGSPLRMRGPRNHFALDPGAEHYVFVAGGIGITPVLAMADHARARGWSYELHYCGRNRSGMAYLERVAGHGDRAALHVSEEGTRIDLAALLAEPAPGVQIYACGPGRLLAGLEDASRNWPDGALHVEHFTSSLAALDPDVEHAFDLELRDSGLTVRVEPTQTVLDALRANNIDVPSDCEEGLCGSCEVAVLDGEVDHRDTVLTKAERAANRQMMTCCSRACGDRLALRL
SMILES,MIC [1] [µM],MIC [2] [µM],MIC [3] [µM],MIC [4] [µM],MIC [5] [µM],"MIC [6, 12] [µM]",antibacterial activity in words [7],Kd [8] [µM],MIC [9] [µM],"share of monohydroxylated products oxidized at sites remote from desosamine ([10]; C7 and C6/C8 for the 12-membered ring, C7/C8 or C6/C9 for the 13-membered ring) [%]",Number of products ([10]; PikCD50N-RhFRED),MIC [11] [µM],MIC ([6]; read-out: Minimal inhibitory concentration) [µM],number of oxidized products ([10]; PikCD50N-RhFRED)
"CC1CC(N(C)C)C(O)C(OC2CCCCCCCCCCCC2)O1 (stereo not shown) [Compound 8, 2-(Cyclotridecyloxy)-4-(dimethylamino)-6-methyltetrahydro-2H-pyran-3-ol]",200,200,50,> 400,400,100,displayed some inhibitory activities,218,50,94,6,200,,
"CC1CC(N(C)C)C(O)C(OC2CCCCCCCCCCCCC2)O1 (stereo not shown) [Compound 10, 2-(cyclotetradecyloxy)-4-(dimethylamino)-6-methyltetrahydro-2H-pyran-3-ol]",400,200,50,> 400,> 400,50,displayed some inhibitory activities,289,50,,6,400,,
"CC1CC(N(C)C)C(O)C(OC2CCCCCCCCCCCCCC2)O1 (stereo not shown) [Compound 12, 2-(cyclopentadecyloxy)-4-(dimethylamino)-6-methyltetrahydro-2H-pyran-3-ol]",100,100,50,> 400,200,50,displayed some inhibitory activities,243,50,,9,100,,
"CCCCCCC#CCCOC1OC(C)CC(N(C)C)C1O (stereo not shown) [Compound 17, 2-(Dec-3-ynyloxy)-4-(dimethylamino)-6-methyltetrahydro-2H-pyran-3-ol]",> 400,> 400,> 400,> 400,> 400,> 400,,2900,> 400,,5,> 400,,
"CC1CC(N(C)C)C(O)C(Oc2ccc3ccc4cccc5ccc2c3c45)O1 (stereo not shown) [Compound 19, 4-(Dimethylamino)-6-methyl-2-(pyren-1-yloxy)tetrahydro-2H-pyran-3-ol]",25,6.2,25,100,25,,,> 5000,25,,1,25,25,single
